Reference: patent US11802120B2, “Fused cyclic urea derivatives as CRHR2 antagonist” (RaQualia Pharma Inc., priority 2018, dated 2023)

Molecular target: T1, human CRHR1-beta (Homo sapiens, UniProt P34998)
T1 sequence (P34998 24-444 isoform P34998-1 limits assumed): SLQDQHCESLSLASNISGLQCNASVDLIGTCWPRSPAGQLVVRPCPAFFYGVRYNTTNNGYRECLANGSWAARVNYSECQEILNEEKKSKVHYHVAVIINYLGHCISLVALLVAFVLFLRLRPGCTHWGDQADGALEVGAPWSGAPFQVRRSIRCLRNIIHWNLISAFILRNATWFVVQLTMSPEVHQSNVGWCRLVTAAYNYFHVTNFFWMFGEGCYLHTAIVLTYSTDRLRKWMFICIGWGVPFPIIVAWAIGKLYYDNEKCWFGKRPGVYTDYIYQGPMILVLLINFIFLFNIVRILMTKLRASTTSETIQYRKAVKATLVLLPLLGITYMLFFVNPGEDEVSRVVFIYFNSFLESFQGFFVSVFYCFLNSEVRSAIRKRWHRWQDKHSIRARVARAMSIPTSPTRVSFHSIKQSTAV
Experiment: cAMP functional assay for human CRHR1 (LANCE Ultra cAMP, TR-FRET)
Type: cell-based
Details: CHO-K1 cells expressing human CRHR1-beta, agonist CRF at EC80, cAMP; read-out: IC50 against CRHR1
Description: cAMP functional assay for human CRHR1 and CRHR2
The ability of the compounds of this invention to inhibit either CRHR2 or CRHR1 is assessed by 3′,5′-cyclic adenosine monophosphate (cAMP) production in cells using the LANCE Ultra cAMP assay kit (ParkinElmer), which are designed based on the homogeneous time-resolved fluorescence resonance energy transfer (TR-FRET) immunoassay.
CHO-K1 (Chinese hamster ovary) cells stably expressing either human CRHR2-alpha (DiscoveRX, Cat. 95-0048C2) or human CRHR1-beta (DiscoveRX, Cat. 95-0047C2) are grown in HAM's F12 media supplemented with 10% fetal bovine serum (FBS), 100 units/mL penicillin, 100 microg/mL hygromycin and 0.5 microg/mL geneticin at 37° C. in 5% CO2 humidified incubator to 80% confluence. After 7 hours starvation treatment in culture media containing 0.1% FBS, the cells are washed with Hanks balanced salt solution (HBSS) and cryopreserved.
For cAMP assay, frozen cells are thawed and washed with HBSS, followed by resuspended in assay buffer (HBSS containing 0.1% bovine serum albumin, 0.5 mM isobutylmethylxanthine and 5 mM Hepes, pH 7.4) at the appropriate concentration for the assay. The cell suspensions are plated on 384-well microplates (Greiner Bio-One) at a density of 4,000 cells per well. After preincubating the cells with various concentrations of the compounds for 30 min at 25° C., an assay buffer containing EC80 concentration of each agonist is added and the cells are incubated for 30 min at 25° C. Human urocortin2 (Peptide Institute) and CRF (Peptide Institute) are used as agonists for CRHR2 and CRHR1, respectively. For the termination of assay, europium-labeled cAMP tracer and ULight (registered trademark) dye labeled cAMP antibodies, both prepared with Lance-Ultra cAMP detection reagent (Perkin Elmer) are added in the plate and incubate for 60 min at 25° C. After incubation, TR-FRET signal is detected by EnVision plate reader (PerkinElmer). The IC50 values for compounds are calculated from dose-response curves by fitting the percent inhibition using XLfit (ID Business Solutions).

Row | IC50 [nM] | Compound
1 | < 1000 | Cc1ncc(Cl)cc1C(=O)N[C@H]1CC[C@H](CN2C(=O)N(c3ccccc3)Cc3ccccc32)CC1 [Example 136, 5-chloro-2-methyl-N-((1r,4r)-4-((2-oxo-3-phenyl-3,4-dihydro-quinazolin-1(2H)-yl)methyl)cyclohexyl)nicotinamide]
2 | < 1000 | Cc1ncc(Cl)cc1C(=O)N[C@H]1CC[C@H](Cn2c(=O)n(-c3ccc(CO)cc3)c3ccccc32)CC1 [Example 21, 5-chloro-N-((1r,4r)-4-((3-(4-(hydroxymethyl)phenyl)-2-oxo-2,3-dihydro-1H-benzo[d]imidazol-1-yl)methyl)cyclohexyl)-2-methylnicotinamide]
3 | < 1000 | Cc1ncc(Cl)cc1C(=O)N[C@H]1CC[C@H](Cn2c(=O)n(-c3ccc(N4CCN(C)CC4)nn3)c3ccccc32)CC1 [Example 68, 5-chloro-2-methyl-N-((1r,4r)-4-((3-(6-(4-methylpiperazin-1-yl)pyridazin-3-yl)-2-oxo-2,3-dihydro-1H-benzo[d]imidazol-1-yl)methyl)cyclohexyl)nicotinamide]
4 | < 1000 | Cc1ncc(Cl)cc1C(=O)N[C@H]1CC[C@H](Cn2c(=O)n(-c3ccc(N4CC[C@@H](O)C4)nc3)c3ccccc32)CC1 [Example 81, 5-chloro-N-((1R,4r)-4-((3-(6-((R)-3-hydroxypyrrolidin-1-yl)pyridin-3-yl)-2-oxo-2,3-dihydro-1H-benzo[d]imidazol-1-yl)methyl)cyclohexyl)-2-methylnicotinamide]
5 | < 1000 | Cc1ncc(Cl)cc1C(=O)N[C@H]1CC[C@H](Cn2c(=O)n(-c3ccc(N4CC[C@H](N(C)C)C4)nc3)c3ccccc32)CC1 [Example 61, 5-chloro-N-((1S,4r)-4-((3-(6-((S)-3-(dimethylamino)pyrrolidin-1-yl)pyridin-3-yl)-2-oxo-2,3-dihydro-1H-benzo[d]imidazol-1-yl)methyl)cyclohexyl)-2-methylnicotinamide]
6 | < 1000 | Cc1ncc(Cl)cc1C(=O)N[C@H]1CC[C@H](Cn2c(=O)n(-c3ccc(OC[C@H]4CNCCO4)nc3)c3ccccc32)CC1 [Example 74, 5-chloro-2-methyl-N-((1R,4r)-4-((3-(6-((R)-morpholin-2-ylmethoxy)pyridin-3-yl)-2-oxo-2,3-dihydro-1H-benzo[d]imidazol-1-yl)methyl)cyclohexyl)nicotinamide]

Molecular target: T2, human CRHR2-alpha (Homo sapiens, UniProt Q13324)
T2 sequence (Q13324 1-411): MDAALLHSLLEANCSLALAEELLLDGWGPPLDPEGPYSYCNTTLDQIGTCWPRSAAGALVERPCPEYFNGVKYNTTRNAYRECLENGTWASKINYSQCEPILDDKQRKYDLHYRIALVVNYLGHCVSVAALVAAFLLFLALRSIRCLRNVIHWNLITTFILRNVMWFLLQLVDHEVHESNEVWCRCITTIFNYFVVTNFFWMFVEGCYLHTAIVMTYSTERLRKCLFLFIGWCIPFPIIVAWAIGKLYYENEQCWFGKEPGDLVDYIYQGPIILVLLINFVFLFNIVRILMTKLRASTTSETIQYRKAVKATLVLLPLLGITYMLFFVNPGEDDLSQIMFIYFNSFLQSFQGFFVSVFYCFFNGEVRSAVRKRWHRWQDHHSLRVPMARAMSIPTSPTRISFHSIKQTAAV
Experiment: cAMP functional assay for human CRHR2 (LANCE Ultra cAMP, TR-FRET)
Type: cell-based
Details: CHO-K1 cells expressing human CRHR2-alpha, agonist human urocortin2 at EC80, cAMP; read-out: IC50 against CRHR2
In short: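 CHO-K1 stable lines; 4,000 cells/well; compound 30 min, 25° C; EC80 agonist (human urocortin2 → CRHR2, CRF → CRHR1) 30 min, 25° C; buffer HBSS/0.1% BSA/0.5 mM IBMX/5 mM Hepes pH 7.4; Eu-cAMP tracer + ULight antibody 60 min; TR-FRET read; IC50 from % inhibition curves.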

Row | IC50 [nM] | Compound
7 | < 300 | Cc1ncc(Cl)cc1C(=O)N[C@H]1CC[C@H](Cn2c(=O)n(-c3ccc(N4CC(N(C)C)C4)nc3)c3ccccc32)CC1 [Example 161, 5-chloro-N-((1r,4r)-4-((3-(6-(3-(dimethylamino)azetidin-1-yl)pyridin-3-yl)-2-oxo-2,3-dihydro-1H-benzo[d]imidazol-1-yl)methyl)cyclohexyl)-2-methylnicotinamide]
8 | < 300 | Cc1ncc(Cl)cc1C(=O)N[C@H]1CC[C@H](Cn2c(=O)n(-c3ccc4nccn4c3)c3ccccc32)CC1 [Example 186, 5-chloro-N-((1r,4r)-4-((3-(imidazo[1,2-a]pyridin-6-yl)-2-oxo-2,3-dihydro-1H-benzo [d]imidazol-1-yl)methyl)cyclohexyl)-2-methylnico-tinamide]
9 | < 300 | O=C(N[C@H]1CC[C@H](Cn2c(=O)n(-c3ccccc3F)c3ncccc32)CC1)c1cc(Cl)cnc1C(F)F [Example 449, 5-chloro-2-(difluoromethyl)-N-((1r,4r)-4-((3-(2-fluoro-phenyl)-2-oxo-2,3-dihydro-1H-imidazo[4,5-b]pyridin-1-yl)methyl)cyclohexyl) nicotinamide]
10 | < 300 | C=Cc1ccc(-n2c(=O)n(C[C@H]3CC[C@H](NC(=O)c4cc(Cl)cnc4C)CC3)c3ccccc32)cn1 [Example 70, 5-chloro-2-methyl-N-((1r,4r)-4-((2-oxo-3-(6-vinylpyridin-3-yl)-2,3-dihydro-1H-benzo[d]imidazol-1-yl)methyl)cyclohexyl)nicotinamide]
11 | < 300 | Cc1ncc(Cl)cc1C(=O)N[C@H]1CC[C@H](Cn2c(=O)n(-c3cccc4c3cnn4C)c3ccccc32)CC1 [Example 347, 5-chloro-2-methyl-N-((1r,4r)-4-((3-(1-methyl-1H-indazol-4-yl)-2-oxo-2,3-dihydro-1H-benzo[d]imidazol-1-yl)methyl)cyclohexyl)nicotinamide]
12 | < 300 | CNC(=O)c1ccc(-n2c(=O)n(C[C@H]3CC[C@H](NC(=O)c4cc(Cl)cnc4C)CC3)c3cc(F)ccc32)cn1 [Example 226, 5-(3-(((1r,4r)-4-(5-chloro-2-methylnicotinamido)cyclo-hexyl)methyl)-5-fluoro-2-oxo-2,3-dihydro-1H-benzo[d]imidazol-1-yl)-N-methylpicolinamide]
13 | < 300 | Cc1ncc(Cl)cc1C(=O)N[C@H]1CC[C@H](Cn2c(=O)n(-c3ccc4c(c3)ncn4C)c3ccccc32)CC1 [Example 206, 5-chloro-2-methyl-N-((1r,4r)-4-((1′-methyl-2-oxo-1′H-[1,5′-bibenzo[d]imidazol]-3(2H)-yl)methyl)cyclohexyl)nico-tinamide]
14 | < 300 | O=C(N[C@H]1CC[C@H](Cn2c(=O)n(-c3ccc(NCCO)cn3)c3ccccc32)CC1)c1cc(Cl)cnc1C(F)F [Example 715, 5-chloro-2-(difluoromethyl)-N-((1r,4r)-4-((3-(5-((2-hydroxyethyl)amino)pyridin-2-yl)-2-oxo-2,3-dihydro-1H-benzo[d]imidazol-1-yl)methyl)cyclohexyl)nicotinamide]
15 | < 300 | Cc1ncc(Cl)cc1C(=O)N[C@H]1CC[C@H](Cn2c(=O)n(-c3ccc(NC(C)C)nc3)c3ccccc32)CC1 [Example 460, 5-chloro-N-((1r,4r)-4-((3-(6-(isopropylamino)pyridin-3-yl)-2-oxo-2,3-dihydro-1H-benzo[d]imidazol-1-yl)methyl)cyclohexyl)-2-methylnicotinamide]
16 | < 300 | Cc1ccc(-n2c(=O)n(C[C@H]3CC[C@H](NC(=O)c4cc(Cl)cnc4C)CC3)c3c(F)cccc32)cn1 [Example 124, 5-chloro-N-((1r,4r)-4-((7-fluoro-3-(6-methylpyridin-3-yl)-2-oxo-2,3-dihydro-1H-benzo[d]imidazol-1-yl)methyl)cyclo-hexyl)-2-methylnicotinamide]
17 | < 300 | Cc1ncc(Cl)cc1C(=O)N[C@H]1CC[C@H](Cn2c(=O)n(-c3ccc4c(c3)cc(CO)n4C)c3ccccc32)CC1 [Example 497, 5-chloro-N-((1r,4r)-4-((3-(2-(hydroxymethyl)-1-methyl-1H-indol-5-yl)-2-oxo-2,3-dihydro-1H-benzo[d]imidazol-1-yl)methyl)cyclohexyl)-2-methylnicotinamide]
18 | < 300 | Cc1ncc(Cl)cc1C(=O)N[C@H]1CC[C@H](Cn2c(=O)n(-c3ccccc3C(F)(F)F)c3cccnc32)CC1 [Example 257, 5-chloro-2-methyl-N-((1r,4r)-4-((2-oxo-1-(2-(trifluoro-methyl)phenyl)-1H-imidazo [4,5-b]pyridin-3(2H)-yl)methyl)cyclohexyl)nicotinamide]
19 | < 300 | O=C(N[C@H]1CC[C@H](Cn2c(=O)n(-c3ccccc3Cl)c3ncccc32)CC1)c1cc(Cl)cnc1C(F)F [Example 366, 5-chloro-N-((1r,4r)-4-((3-(2-chlorophenyl)-2-oxo-2,3-dihydro-1H-imidazo[4,5-b]pyridin-1-yl)methyl)cyclo-hexyl)-2-(difluoromethyl) nicotinamide]
